Assay results reported in US8552002B2 (Novartis AG, priority 2004, dated 2013).

Tests used:
Assay type in all cases: biochemical
[1] = biological target: T1, KDR (Homo sapiens, UniProt P35968); test: Inhibitory activity against KDR (VEGF-R2), in vitro data of Examples 170 and 207; conditions: 10 μM; Examples 1 to 169; read-out: KDR inhibition at 10 μM
T1 construct: expressed in transfected cells; host or cells: CHO cells
Method: (Controls comprise medium without test compounds). After two hours of incubation at 37° C., recombinant VEGF is added; the final VEGF concentration is 20 ng/ml. After a further five minutes incubation at 37° C., the cells are washed twice with ice-cold PBS (phosphate-buffered saline) and immediately lysed in 100 μl lysis buffer per well. The lysates are then centrifuged to remove the cell nuclei, and the protein concentrations of the supernatants are determined using a commercial protein assay (BIORAD). The lysates can then either be immediately used or, if necessary, stored at −20° C. […] The plates are then washed and the remaining free protein-binding sites are saturated with 3% TopBlock® (Juro, Cat. # TB232010) in phosphate buffered saline with Tween 20® (polyoxyethylen(20)sorbitane monolaurate, ICI/Uniquema) (PBST). The cell lysates (20 μg protein per well) are then incubated in these plates overnight at 4° C. together with an antiphosphotyrosine antibody coupled with alkaline phosphatase (PY20:AP from Zymed). […] The luminescence is measured in a Packard Top Count Microplate Scintillation Counter.

[2] = biological target: T2, Tek (Homo sapiens, UniProt Q02763); test: Recombinant GST-Tek (Tie-2) tyrosine kinase assay (33P into poly(Glu,Tyr)); conditions: Examples 1 to 169
T2 construct: amino acids 773-1124 of the cytoplasmic kinase domain of human Tek, N-terminally fused to GST; made in house; host or cells: Sf9 insect cells (baculovirus)
T2 sequence (Q02763 773-1124): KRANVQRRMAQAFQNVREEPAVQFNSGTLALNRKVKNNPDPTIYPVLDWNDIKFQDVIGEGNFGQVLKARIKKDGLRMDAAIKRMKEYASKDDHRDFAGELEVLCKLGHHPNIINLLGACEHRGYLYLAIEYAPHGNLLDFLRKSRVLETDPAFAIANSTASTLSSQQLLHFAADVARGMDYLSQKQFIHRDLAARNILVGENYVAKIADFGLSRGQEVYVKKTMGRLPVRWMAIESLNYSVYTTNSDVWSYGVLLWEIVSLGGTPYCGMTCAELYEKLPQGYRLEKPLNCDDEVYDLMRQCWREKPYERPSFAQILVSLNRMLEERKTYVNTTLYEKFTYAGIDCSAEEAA
Text: (Tie-2/Tek): The baculovirus donor vector pFbacG01 was used to generate a recombinant baculovirus that expressed the amino acid region amino acids 773-1124 of the cytoplasmic kinase domain of human Tek, N-terminally fused to GST (Provided by Dr. Marmé, Institute of Molecular Medicine, Freiburg, Germany based on a Research Collaboration). Tek was recloned into the pFbacG01 transfer vector by EcoRI excision and ligation into EcoRI digested pFbacG01 (FBG-Tie2/Tek).
Production of virus: Transfer vectors containing the kinase domains were transfected into the DH10Bac cell line (GIBCO) and plated on selective agar plates. Colonies without insertion of the fusion sequence into the viral genome (carried by the bacteria) are blue. Single white colonies were picked and viral DNA (bacmid) isolated from the bacteria by standard plasmid purification procedures. Sf9 cells or Sf21 cells were then transfected in 25 cm^2 flasks with the viral DNA using Cellfectin reagent.
Determination of small scale protein expression in Sf9 cells: Virus containing media was collected from the transfected cell culture and used for infection to increase its titer. Virus containing media obtained after two rounds of infection was used for large-scale protein expression. For large-scale protein expression 100 cm^2 round tissue culture plates were seeded with 5×10^7 cells/plate and infected with 1 mL of virus-containing media (approx. 5 MOIs). After 3 days the cells were scraped off the plate and centrifuged at 500 rpm for 5 min. Cell pellets from 10-20, 100 cm^2 plates, were resuspended in 50 mL of ice-cold lysis buffer (25 mMTris-HCl, pH7.5, 2 mMEDTA, 1% NP-40, 1 mM DTT, 1 mMP MSF). The cells were stirred on ice for 15 min and then centrifuged at 5000 rpms for 20 min.
Purification of GST-tagged proteins: The centrifuged cell lysate was loaded onto a 2 mL glutathione-sepharose column and washed three times with 10 mL of 25 mM Tris-HCl, pH 7.5, 2 mM EDTA, 1 mM DTT, 200 mM NaCl. The GST-tagged proteins were then eluted by 10 applications (1 mL each) of 25 mM Tris-HCl, pH 7.5, 10 mM reduced-glutathione, 100 mM NaCl, 1 mM DTT, 10% Glycerol and stored at −70° C.
Measure of enzyme activity: Tyrosine protein kinase assays with either purified GST-Ret, GST-Tek or GST-FGFR-3-K650E were carried out in a final volume of 30 μL with final concentrations of the following components: Ret included 15 ng of GST-Ret, 20 mM Tris-HCl, pH 7.5, 1 mM MnCl2, 10 mM MgCl2, 1 mM DTT, 3 μg/mL poly(Glu,Tyr) 4:1, 1% DMSO and 2.0 μM ATP (γ-[^33P]-ATP 0.1 μCi). Tek included 150 ng of GST-Tek, 20 mM Tris-HCl, pH 7.5, 3 mM MnCl2, 3 mM MgCl2, 1 mM DTT, 0.01 mM Na3VO4, 250 μg/mL PEG 20'000, 10 μg/mL poly(Glu,Tyr) 4:1, 1% DMSO and 4.0 μM ATP (γ-[^33P]-ATP 0.1 μCi). FGFR-3-K650E included 10 ng of GST-FGFR-3-K650E, 20 mM Tris-HCl, pH 7.5, 3 mM MnCl2, 3 mM MgCl2, 1 mM DTT, […], 10 μg/mL poly(Glu,Tyr) 4:1, 1% DMSO and 4.0 μM ATP (γ-[^33P]-ATP 0.1 μCi).The activity was assayed in the presence or absence of inhibitors, by measuring the incorporation of ^33P from [γ^33P] ATP into poly(Glu,Tyr) 4:1. The assay was carried out in 96-well plates at ambient temperature for 30 min under conditions described below and terminated by the addition of 50 μL of 125 mM EDTA. Subsequently, 60 μL of the reaction mixture were transferred onto Immobilon-PVDF membrane (Millipore) previously soaked for 5 min with methanol, rinsed with water, then soaked for 5 min with 0.5% H3PO4 and mounted on vacuum manifold with disconnected vacuum source. After spotting all samples, vacuum was connected and each well rinsed with 200 μL 0.5% H3PO4. Membranes were removed and washed 4× on a shaker with 1.0% H3PO4, once with ethanol. Membranes were counted after drying at ambient temperature, mounting in Packard TopCount 96-well frame, and addition of 10 μL/well of Microscint™ (Packard). […]

[3] = biological target: T3, FGFR3 (K650E) (Homo sapiens, UniProt P22607, K650E); test: Recombinant GST-FGFR-3-K650E tyrosine kinase assay (33P into poly(Glu,Tyr)); conditions: 10 μM; Examples 1 to 169; read-out: FGFR3 (K650E) inhibition at 10 μM
T3 construct: amino acids 411-806 of the cytoplasmic domain of human FGFR-3, N-terminally fused to GST; made in house; host or cells: Sf9 insect cells (baculovirus)
T3 sequence (P22607 411-806 K650E): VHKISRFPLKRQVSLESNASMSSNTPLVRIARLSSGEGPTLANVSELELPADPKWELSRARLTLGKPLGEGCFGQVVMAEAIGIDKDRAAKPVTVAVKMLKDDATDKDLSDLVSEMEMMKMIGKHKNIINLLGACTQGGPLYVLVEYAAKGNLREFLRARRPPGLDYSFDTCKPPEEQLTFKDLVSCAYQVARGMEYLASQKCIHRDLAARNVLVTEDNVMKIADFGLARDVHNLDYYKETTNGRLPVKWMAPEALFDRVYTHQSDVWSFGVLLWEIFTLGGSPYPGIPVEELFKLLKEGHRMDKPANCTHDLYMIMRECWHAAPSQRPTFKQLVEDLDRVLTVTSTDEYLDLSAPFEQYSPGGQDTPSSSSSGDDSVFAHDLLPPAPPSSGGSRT

T1 sequence (P35968 20-1356): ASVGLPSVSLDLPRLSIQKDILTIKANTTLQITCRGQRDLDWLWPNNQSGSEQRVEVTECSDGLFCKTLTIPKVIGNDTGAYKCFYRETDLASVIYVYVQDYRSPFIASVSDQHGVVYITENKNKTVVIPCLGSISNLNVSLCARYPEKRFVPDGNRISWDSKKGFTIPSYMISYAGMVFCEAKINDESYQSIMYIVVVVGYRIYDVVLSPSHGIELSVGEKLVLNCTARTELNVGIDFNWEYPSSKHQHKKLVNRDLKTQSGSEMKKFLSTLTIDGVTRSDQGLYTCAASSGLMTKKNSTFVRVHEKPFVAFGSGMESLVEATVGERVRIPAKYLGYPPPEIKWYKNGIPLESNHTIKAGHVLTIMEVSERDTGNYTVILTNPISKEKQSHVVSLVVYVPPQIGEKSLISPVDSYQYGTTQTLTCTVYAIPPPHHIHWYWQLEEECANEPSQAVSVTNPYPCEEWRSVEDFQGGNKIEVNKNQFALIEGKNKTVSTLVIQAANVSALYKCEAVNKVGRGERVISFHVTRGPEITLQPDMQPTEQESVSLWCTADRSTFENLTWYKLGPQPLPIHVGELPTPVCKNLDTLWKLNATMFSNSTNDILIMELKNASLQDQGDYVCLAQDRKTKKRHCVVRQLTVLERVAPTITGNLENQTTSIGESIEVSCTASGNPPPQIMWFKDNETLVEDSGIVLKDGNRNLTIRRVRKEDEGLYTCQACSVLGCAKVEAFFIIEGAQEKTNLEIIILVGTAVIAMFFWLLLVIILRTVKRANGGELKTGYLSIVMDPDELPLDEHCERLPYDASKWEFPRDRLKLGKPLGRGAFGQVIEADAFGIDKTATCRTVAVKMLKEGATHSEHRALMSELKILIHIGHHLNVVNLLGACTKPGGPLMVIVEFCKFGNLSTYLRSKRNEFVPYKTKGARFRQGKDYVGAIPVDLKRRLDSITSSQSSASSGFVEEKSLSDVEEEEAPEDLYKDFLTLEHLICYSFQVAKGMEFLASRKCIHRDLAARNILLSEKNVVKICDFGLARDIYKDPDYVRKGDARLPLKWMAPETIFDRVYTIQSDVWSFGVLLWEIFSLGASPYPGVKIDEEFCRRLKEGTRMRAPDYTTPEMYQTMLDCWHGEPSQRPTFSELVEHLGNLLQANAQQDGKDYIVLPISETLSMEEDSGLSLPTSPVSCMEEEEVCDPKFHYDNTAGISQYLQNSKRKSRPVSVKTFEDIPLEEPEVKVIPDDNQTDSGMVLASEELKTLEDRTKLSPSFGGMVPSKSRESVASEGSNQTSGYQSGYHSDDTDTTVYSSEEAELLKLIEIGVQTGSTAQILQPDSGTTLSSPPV

SMILES | inhibition at 10 µM [1] | inhibition at 10 µM [2] | inhibition at 10 µM [3]
COc1cc(OC)c(Cl)c(NC(=O)N(C)c2cc(Nc3cccc(N4CCN(C)CC4)c3)ncn2)c1Cl [Example 3, 3-(2,6-Dichloro-3,5-dimethoxy-phenyl)-1-methyl-1-{6-[3-(4-methyl-piperazin-1-yl)-phenylamino]-pyrimidin-4-yl}-urea] | 67 to 100% | 12 to 100% | 
Cc1cccc(Cl)c1NC(=O)Nc1cc(Nc2ccc(N3CCN(C)CC3)cc2)ncn1 [Example 6, 1-(2-Chloro-6-methyl-Phenyl)-3-{6-[4-(4-methyl-piperazin-1-yl)-phenyl-amino]-pyrimidin-4-yl}-urea] | 67 to 100% | 12 to 100% | 27 to 100%
Cc1cccc(Cl)c1NC(=O)Nc1cc(Nc2cccc(N3CCN(C)CC3)c2)ncn1 [Example 7, 1-(2-Chloro-6-methyl-phenyl)-3-{6-[3-(4-methyl-piperazin-1-yl)-phenyl-amino]-pyrimidin-4-yl}-urea] | 67 to 100% | 12 to 100% | 27 to 100%
COc1cccc(NC(=O)Nc2cc(Nc3ccc(N4CCN(C)CC4)cc3)ncn2)c1 [Example 8, 1-(3-Methoxy-phenyl)-3-{6-[4-(4-methyl-piperazin-1-yl)-phenylamino]-py-rimidin-4-yl}-urea] | 67 to 100% | 12 to 100% | 27 to 100%
COc1cccc(NC(=O)Nc2cc(Nc3cccc(N4CCN(C)CC4)c3)ncn2)c1 [Example 9, 1-(3-Methoxy-phenyl)-3-{6-[3-(4-methyl-piperazin-1-yl)-phenylamino]-py-rimidin-4-yl}-urea] | 67 to 100% | 12 to 100% | 27 to 100%
CN1CCN(c2ccc(Nc3cc(NC(=O)Nc4cc(Cl)cc(Cl)c4)ncn3)cc2)CC1 [Example 10, 1-(3,5-Dichloro-phenyl)-3-{6-[4-(4-methyl-piperazin-1-yl)-phenylamino]-pyrimidin-4-yl}-urea] | 67 to 100% | 12 to 100% | 27 to 100%
CN1CCN(c2cccc(Nc3cc(NC(=O)Nc4cc(Cl)cc(Cl)c4)ncn3)c2)CC1 [Example 11, 1-(3,5-Dichloro-phenyl)-3-{6-[3-(4-methyl-piperazin-1-yl)-phenylamino]-pyrimidin-4-yl}-urea] | 67 to 100% | 12 to 100% | 27 to 100%
COc1ccc(OC)c(NC(=O)Nc2cc(Nc3ccc(N4CCN(C)CC4)cc3)ncn2)c1 [Example 12, 1-(2,5-Dimethoxy-phenyl)-3-{6-[4-(4-methyl-piperazin-1-yl)-phenyl-amino]-pyrimidin-4-yl}-urea] | 67 to 100% | 12 to 100% | 27 to 100%
COc1ccc(OC)c(NC(=O)Nc2cc(Nc3cccc(N4CCN(C)CC4)c3)ncn2)c1 [Example 13, 1-(2,5-Dimethoxy-phenyl)-3-{6-[3-(4-methyl-piperazin-1-yl)-phenyl-amino]-pyrimidin-4-yl}-urea] | 67 to 100% | 12 to 100% | 27 to 100%
COc1ccc(Cl)c(NC(=O)Nc2cc(Nc3ccc(N4CCN(C)CC4)cc3)ncn2)c1 [Example 28, 1-(2-Chloro-5-methoxy-phenyl)-3-{6-[4-(4-methyl-piperazin-1-yl)-phenyl-amino]-pyrimidin-4-yl}-urea] | 67 to 100% | 12 to 100% | 
COc1ccc(Cl)c(NC(=O)Nc2cc(Nc3ccc(N4CCN(C)CC4)cc3)ncn2)c1Cl [Example 36, 1-(2,6-Dichloro-3-methoxy-phenyl)-3-{6-[4-(4-methyl-piperazin-1-yl)-phenyl-amino]-pyrimidin-4-yl}-urea] | 67 to 100% | 12 to 100% | 
COc1cc(NC(=O)Nc2cc(Nc3ccc(N4CCN(C)CC4)cc3)ncn2)c(Cl)c(OC)c1 [Example 40, 1-(2-Chloro-3,5-dimethoxy-phenyl)-3-{6-[4-(4-methyl-Piperazin-1-yl)-phenyl-amino]-pyrimidin-4-yl}-urea] | 67 to 100% | 12 to 100% | 
COc1cc(NC(=O)N(C)c2cc(Nc3ccc(N4CCN(C)CC4)cc3)ncn2)cc(OC)c1 [Example 47, 3-(3,5-Dimethoxy-phenyl)-1-methyl-1-{6-[4-(4-methyl-piperazin-1-yl)-phenylamino]-pyrimidin-4-yl}-urea] | 67 to 100% | 12 to 100% | 
COc1cc(NC(=O)N(C)c2cc(Nc3ccc(N4CCN(C)CC4)cc3)ncn2)c(Cl)c(OC)c1 [Example 50, 3-(2-Chloro-3,5-dimethoxy-phenyl)-1-methyl-1-{6-[4-(4-methyl-piperazin-1-yl)-phenylamino]-pyrimidin-4-yl}-urea] | 67 to 100% | 12 to 100% | 
CCN(C(=O)Nc1cc(OC)cc(OC)c1Cl)c1cc(Nc2ccc(N3CCN(C)CC3)cc2)ncn1 [Example 55, 3-(2-Chloro-3,5-dimethoxy-phenyl)-1-ethyl-1-{6-[4-(4-methyl-piperazin-1-yl)-phenylamino]-pyrimidin-4-yl}-urea] | 67 to 100% | 12 to 100% | 
COc1cc(OC)c(Cl)c(NC(=O)N(C)c2cc(Nc3cccc(CN(C)C)c3)ncn2)c1Cl [Example 144, 3-(2,6-Dichloro-3,5-dimethoxy-phenyl)-1-[6-(3-dimethylaminomethyl-phenylamino)-pyrimidin-4-yl]-1-methyl-urea] | 67 to 100% | 12 to 100% | 
COc1cc(OC)c(Cl)c(NC(=O)N(C)c2cc(Nc3ccc(CCCN(C)C)cc3)ncn2)c1Cl [Example 147, 3-(2,6-Dichloro-3,5-dimethoxy-phenyl)-1-{6-[4-(3-dimethylamino-propyl)-phenylamino]-pyrimidin-4-yl}-1-methyl-urea] | 67 to 100% | 12 to 100% | 
COc1cc(OC)c(Cl)c(NC(=O)N(C)c2cc(Nc3ccc(OCCN4CCCC4)cc3)ncn2)c1Cl [Example 148, 3-(2,6-Dichloro-3,5-dimethoxy-phenyl)-1-methyl-1-{6-[4-(2-pyrrolidin-1-yl-ethoxy)-phenylamino]-pyrimidin-4-yl}-urea] | 67 to 100% | 12 to 100% | 
